For experiment [1], the system named is ICAM-1. As to the kind of experiment: ICAM-1 immunofluorescent staining of keratinocytes. It is filed as cell-based, human. Conditions: vs untreated keratinocytes; Figure 6A. As to the method:
Intercellular adhesion molecule-1 (ICAM-1) is an inducible cell-surface glycoprotein that is implicated in cell-cell adhesion, cell membrane raffling and phagocytosis. Therefore, the effect of PAR-2 modulation on ICAM-1 was tested. Keratinocytes were grown in chamber slides and treated with SLIGRL, Compound I and STI as described, followed by immunofluorescent staining for ICAM-1 using standard procedures. Normal donkey serum, (used at 1:5 dilution), was obtained from Jackson Immunoresearch Laboratory (Westgrove, PA). A polyclonal goat antihuman ICAM-1 antibody, (used at 1:200 dilution), was obtained from R&D Systems (Minneapolis, MN), and FITC-conjugated donkey anti-goat antibody was obtained from Jackson Immunoresearch Laboratory. […] In untreated keratinocytes, ICAM-1 was localized mainly to the plasma membrane, with some staining at the nuclear membrane.

The subject of experiment [2] is macrophage cell line IC-21. As to the kind of experiment: Vybrant Phagocytosis Assay Kit, ingestion of fluorescein-labeled E. Coli K-12 particles. In kind it is cell-based. Conditions: treated overnight; 100nM Compound I, 5µM SLIGRL, 0.1 mg/ml STI; untreated control = 100; one of three experiments. As to the method:
To better quantify the level of phagocytosis, the "vybrant™ Phagocytosis Assay Kit" of Molecular Probes (Eugene, Oregon) was used, following manufacturer's instructions, with modification of cell culture conditions for the IC-21 cell line. This kit uses Fluorescein-labeled E. Coli K-12 particles, and is designed for quantifying the effects of drugs or other environmental factors on phagocytic functions. Macrophages were treated overnight with 100nM of Compound I, 5µM of SLIGRL, or 0.1 mg/ml of STI, all dissolved in PBS. The ability of the treated macrophages to ingest the fluorescent E. Coli, as measured by this kit, is documented in Table 1. This experiment was repeated three times.
In order to verify the quantitative nature of the macrophage-phagocytosis assay, a dose-response experiment was performed. Macrophages were treated with 0, 0.01, 0.1 and 1 mg/ml of STI, and the experiment was performed as described in Example 3. […] Each experiment was repeated three times.

In a further experiment the test system is MelanoDerm equivalents. In words: Melanosome transfer (pigmentation) in melanocyte-containing equivalents. In kind it is cell-based. Particulars: same result in monolayer co-cultures with keratinocyte/melanocyte contact. The procedure: (§1) Since PAR-2 is expressed in keratinocytes, but not in melanocytes, the possible requirement of keratinocyte-melanocyte contact was tested for the effect of Compound I and SLIGRL on melanosome phagocytosis by the keratinocytes. Primary melanocyte cultures (commercially available from Clonetics, San Diego) were plated under epidermal equivalents (EpiDerm, of MatTek, Ashland, MA) to create an equivalent-monolayer co-culture with no contact between keratinocytes and melanocytes. These co-cultures were compared to MelanoDerm equivalents (of MatTek), where melanocytes are present in the basal layer of the equivalent. Cultures were treated with Compound I, with the […] agonist SLIGRL. As set forth in Table 3, keratinocytes are indicated by "K", melanocytes are indicated by "M", and lack of keratinocyte-melanocyte contact is indicated as "no K-M cont". […] The same result was also observed with monolayer keratinocyte/melanocyte co-cultures having keratinocyte/melanocyte contact.

The test system of experiment [3] is Keratinocytes. As to the kind of experiment: Melanin uptake by keratinocytes, Fontana-Mason staining. Conditions: treated two days; melanin powder two hours; Figure 5A; same results with isolated melanosomes (Figure 5B). It is filed as cell-based. As to the method:
This example tests the ability of keratinocytes to acquire melanin or melanosomes in vitro, and thus function as a simplified system for melanosome uptake in the skin. Keratinocytes were plated in glass chamber-slides as described earlier, and were treated for two days with SLIGRL, Compound I or STI. At that time, melanin powder (from Sigma, St. Louis, MO) was mixed in sterile PBS at 10 µg/ml, and was added to the culture media (1:10 dilution) for two hours. Cells were then washed with PBS and stained with Fontana-Mason ("F&M") staining. F&M stains silver nitrate-reducing molecules, thereby permitting the identification of melanins inside the keratinocytes. […] This system, therefore, can mimic melanosome transfer and melanin distribution in vivo, as skin keratinocytes use melanin as an UV-protective cap over their nuclei. […] The same results were also observed using melanosomes isolated as described in S. Orlow, et al., J.I.D. 100:55-64 (1993) (Figure 5B).

For experiment [4], the system named is Human keratinocytes. In words: Timing of effect on keratinocyte microsphere phagocytosis. In kind it is cell-based. The arrangement: key: +: Plus signs indicate an effect on phagocytosis; -: minus signs indicate no effect on phagocytosis; -/+: plus/minus signs indicate a marginal effect on phagocytosis. Conditions: decrease for Compound I, increase for SLIGRL. As to the method:
(§2) In this example, human primary keratinocytes or the human keratinocyte cell line HaCaT were used as in vitro model systems to study the effect of PAR-2 regulators on keratinocyte phagocytosis. The human primary keratinocytes used are commercially available from Clonetics (San Diego, CA). Cells were plated on chamber slides, at 2 chambers/slide and 60,000 cells/chamber. Cells were treated once daily, for two or three days, with Compound I (1µM), SLIGRL (10µM), or vehicle (Phosphate-buffered saline, ("PBS") from Gibco-BRL (Gaithersburg, MD). After two or three days of exposure to the test compounds, cells were exposed to Nile-red or FITC fluorescent microspheres, 1 µm in diameter, 50 microspheres/cell, for two hours at 37°C. Microspheres were from Molecular Probes (Eugene, OR), and were processed according to manufacturer's instructions. Following that treatment, cells were incubated with 15% Fetal Bovine Serum ("FBS", from Gibco-BRL), for 15 minutes at 37°C and rinsed with PBS. At that time, chambers were separated from the slides, and the slides were covered with glycerol and coverslips. Fluorescent microscopy was performed using a Zeiss Axiovert 35 or a Nikon Optiphot-2 microscope.
Human keratinocytes were treated with Compound I or SLIGRL for periods of time ranging from one hour to two days. At the end of the treatment period, the cells were treated with microspheres as described in Example 1. […] Plus signs indicate an effect on phagocytosis, minus signs indicate no effect on phagocytosis, and plus/minus signs indicate a marginal effect on phagocytosis. The effects measured were a decrease for Compound I and an increase for SLIGRL. […] This implies that the PAR-2 signaling results in new protein synthesis, a reduction in protein synthesis when a turnover time is required to eliminate the existing relevant protein(s), or a rearrangement of proteins (as occurs in the reorganization of cytoskeletal components).

In another experiment the test system is Human PMN cells. In words: Boyden chamber chemotactic cell migration towards FMLP. It is filed as cell-based. Conditions: with FMLP; cells counted at 115 microns; pretreated with 5 or 0.5 mg/ml STI, 1 or 0.1 µM Compound I; FMLP alone 41. As to the method: Since ICAM-1 is involved in cell migration, cell migration towards a chemotactic peptide was studied in cells treated with Compound I and STI. Human PMN cells were placed in one side of a Boyden chamber, using standard techniques, and a chemotactic peptide (FMLP) was placed in the other chamber. Cells were allowed to migrate into the second chamber, and the number of migrating cells per field and distance of migration were calculated. The experiment was repeated with PMN cells pretreated with one of the following: 5 or 0.5 mg/ml STI, 1 or 0.1 µM Compound I, a buffer vehicle, and with and without chemotactic peptide. The number of cells per field that migrated the same distance as the untreated control was measured. Without the peptide and with no treatment, an average of 19 cells/field were migrating a distance of 80 microns. […] In other words, no cells (or less than 5/field) were identified at 115 microns. […] The ability to inhibit PMN migration is an important constituent of anti-inflammatory compounds.

For experiment [5], the system named is Human keratinocytes. In words: Keratinocyte microsphere phagocytosis dose-response, image analysis of fluorescent beads. Particulars: two days; SLIGRL 0, 5 and 10 µM; Compound I 1pM to 1µM; STI 0.01 to 1 mg/ml. It is filed as cell-based. The procedure:
as §2, with “microscope. […]” for “microscope.”
Image analysis of the fluorescent beads inside the keratinocytes was used as an alternative way to quantify the phagocytic effect in this system. […]

For experiment [6], the system named is human primary keratinocytes. In words: Fluorescent microsphere ingestion (phagocytosis), fluorescence microscopy. In kind it is cell-based. Conditions: treated two days; Compound I 1µM, SLIGRL 10µM; vs vehicle control; Figure 1. As to the method:
(§3) In order to study the role of the PAR-2 pathway in phagocytosis, several in vitro model systems were used. One system used contained primary human keratinocytes or a human keratinocyte cell line. In this and a number of following examples, cells were treated with test compounds for different amounts of time (from one hour to three days), and samples were then incubated with fluorescent microspheres for two hours. The beads ingested by the cells were photographed using fluorescence microscopy.
(§4) In this example, human primary keratinocytes or the human keratinocyte cell line HaCaT were used as in vitro model systems to study the effect of PAR-2 regulators on keratinocyte phagocytosis. The human primary keratinocytes used are commercially available from Clonetics (San Diego, CA). Cells were plated on chamber slides, at 2 chambers/slide and 60,000 cells/chamber. […]

Experiment [7] deals with Keratinocytes. As to the kind of experiment: Scanning electron microscopy of cell podia. In kind it is cell-based. Particulars: treated two days; vs vehicle-treated controls; Figure 8. As to the method:
Both phagocytosis and cell migration involve changes in cell shape. Therefore, the effect of the PAR-2 pathway reagents on cell podia were studied using scanning electron microscopy. Keratinocytes were treated with Compound I (identified as "SH00230"), SLIGRL and a buffer vehicle for two days, and then processed for SEM using standard techniques. […] In other words, the cells' "fingers" are shorter and malformed, so they cannot grasp objects as well as can the control cells. […] In other words, these cells have a greater probability for productive interaction with particles. Comparing these SEM pictures in Figure 8, it is clear that SLIGRL-treated cells have a greater ability to interact with particles, while Compound 1-treated cells are less suited for such a task.

Experiment [8] relates to macrophage cell line IC-21. As to the kind of experiment: Fluorescent microsphere ingestion (phagocytosis). In kind it is cell-based. Conditions: IC-21 macrophages. The procedure: as §2
The experiment described in Example 1 was repeated using the macrophage cell line IC-21 (obtained from the ATCC), which shares phagocytic characteristics with peritoneal macrophages. […]

The subject of experiment [9] is human keratinocyte cell line HaCaT. In words: Fluorescent microsphere ingestion (phagocytosis), fluorescence microscopy. In kind it is cell-based. Particulars: Figure 2, repeated at least three times. As to the method:
as §3, §4

Experiment [10] deals with Keratinocytes. As to the kind of experiment: F-actin staining, cytoskeletal organization. It is filed as cell-based. Conditions: Compound I 10 nM, STI 0.1 mg/ml, SLIGRL 5 µM; Figure 9. As to the method:
Therefore, the organization of F-actin filaments following PAR-2 modulation was tested. Keratinocytes were treated with Compound I (10 nM), STI (0.1 mg/ml), or with SLIGRL (5 µM) as described in Example 1, and stained for F-actin using standard techniques.

Experiment [11] has as its system ICAM-1. As to the kind of experiment: ICAM-1 immuno-precipitation and Western blotting in keratinocytes. It is filed as cell-based. Particulars: treated keratinocytes; Figure 6B. As to the method:
Immuno-precipitation and Western blotting experiments were performed, according to known methods, to assess the level of ICAM-1 protein in treated keratinocytes.

Experiment [12] has as its system Primary melanocyte cultures plated under epidermal equivalents (EpiDerm). In words: Melanosome transfer (pigmentation) in equivalent-monolayer co-culture without keratinocyte-melanocyte contact. Conditions: no keratinocyte/melanocyte contact. It is filed as cell-based. The procedure: as §1

Results on one substance are retold here after patent publication EP1037653B1, “COMPOSITIONS AND METHODS FOR REGULATING PHAGOCYTOSIS AND ICAM-1 EXPRESSION” (JOHNSON & JOHNSON CONSUMER COMPANIES, INC., priority 1997, dated 1999).

With “(S)-N-Methyl-D-phenylalanyl-N-[4-[(aminoiminomethyl)amino]-1-(2-benzothiazolylcarbonyl)butyl]-L-prolinamide [Compound I]”, in the experiment with ICAM-1 [1], the “intracellular localization of ICAM-1” value was “less staining was observed at the cytoplasmic membrane, and more at the nuclear membrane”. For the same substance, in [2], the “% effect (ingestion)” value is reported as 89.9 +/- 13.6%. In addition, the “pigmentation by affecting melanosome transfer” value in the experiment with MelanoDerm equivalents is reported as “reduced”. In addition, in the experiment with Keratinocytes [3], the “uptake of melanin by keratinocytes” value was “dramatically reduce the uptake of melanin”. Moreover, the effect on phagocytosis entry is on record as “-” in the experiment on Human keratinocytes [4] (Time of Treatment 1 hour); “-” in the experiment with Human keratinocytes [4] (Time of Treatment 2 hours); “-” in the experiment with Human keratinocytes [4] (Time of Treatment 4 hours); “-” in the experiment on Human keratinocytes [4] (Time of Treatment 6 hours); “-/+” in the experiment on Human keratinocytes [4] (Time of Treatment 8 hours); “+” in the experiment on Human keratinocytes [4] (Time of Treatment 16 hours). Also, the effect on phagocytosis entry with Human keratinocytes [4] (Time of Treatment 24 hours) and in the experiment with Human keratinocytes [4] (Time of Treatment 48 hours) was “+” in each case. Also, in the experiment with Human PMN cells, the Cells/Field is less than 5. Moreover, the “phagocytosis with increasing concentrations” value in the experiment on Human keratinocytes [5] is reported as “dose-dependent decrease in phagocytosis”. Further, the “quantity of ingested microspheres” value in experiment [6] is recorded as “dramatic reduction in the quantity of ingested microspheres”. Further, the “shape of cell podia” value with Keratinocytes [7] is recorded as “dramatically shorter podia”. Moreover, in [8], the “number of microspheres ingested” value was “reduced”. The microsphere ingestion result in experiment [9] was “reduce microsphere ingestion”. The actin filaments organization result in the experiment with Keratinocytes [10] is reported as “reduced the ordered organization of the cell cortex”. Besides, the “level of ICAM-1 protein” value in the experiment on ICAM-1 [11] is on record as “decreased the level of ICAM-1 expression”. The “effect on melanosome transfer, measured as the level of pigmentation” value in experiment [12] was “no effect on melanosome transfer”.
